According to ChEMBL document CHEMBL3352346, “Optimization of sphingosine-1-phosphate-1 receptor agonists: effects of acidic, basic, and zwitterionic chemotypes on pharmacokinetic and pharmacodynamic profiles” (J Med Chem, 2014):

What was measured:
[1] = target: Sphingosine 1-phosphate receptor 1 (Homo sapiens, UniProt P21453); assay: Agonist activity at human S1P1R expressed in RH7777 membranes assessed as [35S]GTPgammaS binding after 30 mins; type: functional, cell membranes
[2] = target: Sphingosine 1-phosphate receptor 3 (Homo sapiens, UniProt Q99500); assay: Agonist activity at human S1P3R expressed in RBL membranes assessed as [35S]GTPgammaS binding after 30 mins; type: functional, cell membranes
[3] = Clearance in CD rat at 1 mg/kg, iv or 3 mg/kg, po using DMSO/10%(w/v) Kleptose, 0.9% saline(aq) (2%/98%); type: ADME, organism-based; details: in vivo
[4] = Volume of distribution at steady state in CD rat at 1 mg/kg, iv or 3 mg/kg, po using DMSO/10%(w/v) Kleptose, 0.9% saline(aq) (2%/98%); type: ADME, organism-based; details: in vivo, read-out: Vdss
[5] = Half life in CD rat at 1 mg/kg, iv or 3 mg/kg, po using DMSO/10%(w/v) Kleptose, 0.9% saline(aq) (2%/98%); type: ADME, organism-based; details: in vivo
[6] = Oral bioavailability in CD rat at 3 mg/kg using Methylcellulose(aq), 1% (w/v) suspension; type: ADME, organism-based; details: CD, in vivo
[7] = Chromatographic hydrophobicity index, log D of the compound at pH 2; type: physicochemical; details: buffer
[8] = Chromatographic hydrophobicity index, log D of the compound at pH 7.4; type: physicochemical; details: buffer
[9] = Chromatographic hydrophobicity index, log D of the compound at pH 10.5; type: physicochemical; details: buffer
Rattus norvegicus [10] = assay: Reduction of lymphocyte count in rat at 3 mg/kg, po measured at 4 hrs relative to control; type: functional
Rattus norvegicus [11] = assay: Reduction of lymphocyte count in rat at 3 mg/kg, po measured at 8 hrs relative to control; type: functional
Rattus norvegicus [12] = assay: Reduction of lymphocyte count in rat at 3 mg/kg, po measured at 12 hrs relative to control; type: functional
Rattus norvegicus [13] = assay: Reduction of lymphocyte count in rat at 3 mg/kg, po measured at 24 hrs relative to control; type: functional
Albumin = Albumin (Homo sapiens, UniProt P02768); assay: Fraction unbound as a percentage in human serum albumin; type: ADME
Chain of Albumin (P02768 whole entry): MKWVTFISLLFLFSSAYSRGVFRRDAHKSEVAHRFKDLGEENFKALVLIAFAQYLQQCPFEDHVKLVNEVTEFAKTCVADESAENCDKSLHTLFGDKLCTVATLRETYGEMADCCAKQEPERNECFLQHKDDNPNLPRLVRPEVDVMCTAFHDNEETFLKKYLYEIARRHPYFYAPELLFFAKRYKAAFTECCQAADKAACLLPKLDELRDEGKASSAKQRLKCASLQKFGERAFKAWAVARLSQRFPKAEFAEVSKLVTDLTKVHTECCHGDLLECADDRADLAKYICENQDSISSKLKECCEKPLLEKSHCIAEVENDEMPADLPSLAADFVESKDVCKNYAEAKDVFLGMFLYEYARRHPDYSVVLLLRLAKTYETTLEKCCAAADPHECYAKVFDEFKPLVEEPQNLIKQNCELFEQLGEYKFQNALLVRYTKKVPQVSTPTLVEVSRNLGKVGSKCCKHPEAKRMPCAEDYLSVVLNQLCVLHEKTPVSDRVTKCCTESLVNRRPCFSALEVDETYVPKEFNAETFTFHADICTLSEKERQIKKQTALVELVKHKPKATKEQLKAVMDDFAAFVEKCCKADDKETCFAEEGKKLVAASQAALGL

Chain of Sphingosine 1-phosphate receptor 3 (Q99500 whole entry): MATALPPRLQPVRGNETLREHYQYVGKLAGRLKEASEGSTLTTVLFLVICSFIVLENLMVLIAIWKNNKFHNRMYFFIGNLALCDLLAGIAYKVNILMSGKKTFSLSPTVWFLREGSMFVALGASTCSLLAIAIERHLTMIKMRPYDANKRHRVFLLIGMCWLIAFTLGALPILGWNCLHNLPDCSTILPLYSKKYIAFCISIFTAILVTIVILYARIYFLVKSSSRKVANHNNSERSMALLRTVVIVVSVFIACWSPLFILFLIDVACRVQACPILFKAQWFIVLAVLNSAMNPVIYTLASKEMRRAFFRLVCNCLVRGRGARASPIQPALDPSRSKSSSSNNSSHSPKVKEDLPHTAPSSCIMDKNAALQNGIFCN
Chain of Sphingosine 1-phosphate receptor 1 (P21453 whole entry): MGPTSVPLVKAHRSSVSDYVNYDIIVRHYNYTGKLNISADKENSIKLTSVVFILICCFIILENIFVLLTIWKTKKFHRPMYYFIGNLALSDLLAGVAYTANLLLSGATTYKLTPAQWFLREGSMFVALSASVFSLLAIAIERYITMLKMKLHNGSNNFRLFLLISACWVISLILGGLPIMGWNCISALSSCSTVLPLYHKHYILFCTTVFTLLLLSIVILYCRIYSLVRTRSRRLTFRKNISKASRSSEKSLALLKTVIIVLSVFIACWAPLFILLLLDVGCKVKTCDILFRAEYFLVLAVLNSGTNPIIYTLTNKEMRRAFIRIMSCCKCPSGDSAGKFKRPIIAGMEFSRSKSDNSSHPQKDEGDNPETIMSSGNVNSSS

| EC50 [1] [nM] | EC50 [2] [nM] | Compound | further results |
| --- | --- | --- | --- |
| 126 | 2000 | CC(C)Oc1ccc(-c2nc(-c3ccc4c(c3)CN(CCC(=O)O)CCO4)no2)cc1Cl |  |
| 3.98 | 2000 | CC(C)Oc1ccc(-c2nc(-c3ccc4c(c3)CCN(CC(=O)O)CC4)no2)cc1C#N |  |
| 20 | 5010 | CC(C)Oc1ccc(-c2nc(-c3cccc4c3CCNC4CC(=O)O)no2)cc1Cl (stereo not given) | clearance [3]: 5 mL/min/kg; Vd [4]: 2.7 L/kg; half-life [5]: 6.7 h; bioavailability [6]: 10%; chromatographic logD [7]: 1.47; chromatographic logD [8]: 2.02; chromatographic logD [9]: 1.73; Activity (Rattus norvegicus [10]): 24; Activity (Rattus norvegicus [11]): 12; Activity (Rattus norvegicus [12]): 58; Activity (Rattus norvegicus [13]): 99 |
| 5.01 | 12600 | CC(C)Oc1ccc(-c2nc(-c3cccc4c3CCNC4CC(=O)O)no2)cc1C#N (stereo not given) | chromatographic logD [7]: 1.17; chromatographic logD [8]: 1.58; chromatographic logD [9]: 1.27; Activity (Rattus norvegicus [10]): 46; Activity (Rattus norvegicus [11]): 69; Activity (Rattus norvegicus [12]): 108; Activity (Rattus norvegicus [13]): 132 |
| 6.31 | 3980 | CC(C)Oc1ccc(-c2nc(-c3ccc4c(c3)CCN(CCC(=O)O)C4)no2)cc1C#N |  |
| 15.8 | > 31600 | CC(C)Oc1ccc(-c2nc(-c3cccc4c3CCNCC4)no2)cc1Cl |  |
| 316 | > 31600 | CC(C)Oc1ccc(-c2nc(-c3ccc4c(c3)OCCNC4)no2)cc1Cl |  |
| 631 | > 31600 | CC(C)Oc1ccc(-c2nc(-c3cccc4c3CCCNC4)no2)cc1Cl |  |
| 31.6 | > 31600 | CC(C)Oc1ccc(-c2nc(-c3ccc4c(cnn4CCC(=O)O)c3)no2)cc1Cl | fraction unbound (Albumin): 0.013 |
| 158 | > 31600 | CC(C)Oc1ccc(-c2nc(-c3cccc4c3CCN(CCC(=O)O)CC4)no2)cc1Cl |  |
| 10 | 25100 | CC(C)Oc1ccc(-c2nc(-c3cccc4c3OCCNC4CCCC(=O)O)no2)cc1Cl (stereo not given) |  |
| 5.01 | > 31600 | CC(C)Oc1ccc(-c2nc(-c3cccc4c3OCCNC4CCC(=O)O)no2)cc1Cl (stereo not given) |  |
| 7.94 | > 31600 | CC(C)Oc1ccc(-c2nc(-c3cccc4c3CCN(CC(=O)O)C4)no2)cc1C#N |  |
| 79.4 | > 31600 | CC(C)Oc1ccc(-c2nc(-c3cccc4c3OCCNC4)no2)cc1Cl |  |
| 3.98 | 31600 | CC(C)Oc1ccc(-c2nc(-c3ccc4c(c3)CCNC4)no2)cc1C#N |  |
| 398 | > 31600 | CC(C)Oc1ccc(-c2nc(-c3cccc4c3CN(CCCC(=O)O)C4)no2)cc1C#N |  |
| 398 | > 31600 | CC(C)Oc1ccc(-c2nc(-c3ccc4c(c3)CCCNC4)no2)cc1Cl |  |
| 501 | 2000 | CC(C)Oc1ccc(-c2nc(-c3cccc4c3CN(CCCC(=O)O)C4)no2)cc1Cl |  |
